From US9532519B2, “Plant growth regulator and use thereof” (Japan Science and Technology Agency, priority 2006, dated 2017)

Experiments:
Tsai-hsin = assay: Influence of oxidized glutathione on growth of tsai-hsin, agricultural field; format: in vivo; conditions: 0.5 mM- or 5 mM-GSSG sprayed to leaves two times a week, 1 L per zone (3 m^2)
Source text: Tsai-hsin was cultivated for two weeks, and then transferred to an agricultural field and grown with or without the treatment with GSSG. Tsai-hsin was fertilized with a nitrogen fertilizer that was KUMIAI RIN […] S604 in a ratio of 20 kgN per 10 are, and was additionally fertilized with 5 kgN 3 weeks later.

[1] = tested on: Rose (breed; English rose); assay: Influence of oxidized glutathione on growth of rose (English rose); format: in vivo; conditions: 50 mL of 0.5 mM-GSSG two times a week for four months, then pruned
Method: Rose (breed; English rose) was fertilized with 50 mL of a 0.5 mM-GSSG solution two times a week for four months and then pruned completely and cultivated.

rice (Akita 63) = assay: Rice hydroponics, GSSG in additional fertilization, number of ears; format: in vivo; conditions: GSSG 0.2 gN per test location (0.1 m2) in additional fertilization
Source text: In particular, the method is effective for a plant such as gramineae whose yield is greatly dependent on tillers.

Sweet corn [2] = conditions: in vivo
Arabidopsis [3] = assay: Influence 4 of treatment condition on seeds of Arabidopsis (two weeks of 1 mM-GSSG); format: in vivo; conditions: 1 mM-GSSG only for two weeks in a specific growth period
Method: Seeds of Arabidopsis were sown in pods filled with soil immersed in water. The pods were transferred to trays filled with water containing 1 mM-GSSG and cultivated there only for two weeks that are the first and second weeks (0th-14th day), the second and third weeks (8th-21st day), the third and fourth weeks (15th-28th day), the fourth and fifth weeks (22nd-35th day), the fifth and sixth weeks (29th-42nd day), or the sixth and seventh weeks (36th-49th day) after the sowing. That is, Arabidopsis were treated with 1 mM-GSSG only for two weeks in a specific growth period.
Arabidopsis was cultivated under the same conditions as those described in <1. Influence of oxidized glutathione on growth of Arabidopsis> except for the above condition.
The seed weight per one pod, obtained from Arabidopsis thus cultivated (three plants in each pod), was measured.

[4] = tested on: Rose (breed; Patiohit alicante); assay: Influence of oxidized glutathione on growth of rose (Patiohit alicante); format: in vivo; conditions: 50 mL of 0.5 mM-GSSG two times a week for four months, then pruned
Method: Rose (breed; Patiohit alicante) was fertilized with 50 mL of 0.5 mM-GSSG solution two times a week for four months and then pruned completely and cultivated.

[5] = tested on: Sweet corn (Canberra 90, TAKII & CO., LTD.); assay: Effect 2 of oxidized glutathione on productivity of corn (time of treatment); format: in vivo
Method: Sweet corn (Canberra 90, TAKII & CO., LTD.) was sown, and then transferred to a hydroponics pot ( 1/2000 are) filled with a culture soil (6 L of vermiculite as the lower layer, 3 L of The Kureha Ikubyou Baido soil as the middle layer, and 3 L of vermiculite as the upper layer) two weeks later and additionally fertilized with 3 g of KUMIAI RIN […] S604 four weeks later and six weeks later.
Further, the GSSG-treated plant was given 50 mL of 0.2 mM-GSSG solution four times in 2 weeks (two times a week) after 2 weeks, 4 weeks, or 6 weeks had elapsed from the sowing. Further, there were prepared a management zone to which 0.2 mM-GSSG was given 22 times in total for 11 weeks after 2 weeks had elapsed from the sowing and a management zone to which 0.2 mM-GSSG was not given.
The amount of fruits and the amount of biomass of ground parts of each plant were measured and harvest index was calculated.

[6] = tested on: transformants of Arabidopsis to which a gene encoding gFBA was introduced and wild-type Arabidopsis (Columbia; Col); conditions: in vivo
Sweet corn [7] = assay: Effect 3 of oxidized glutathione on productivity of corn (foliar spray); format: in vivo; conditions: GSSG sprayed to a stem and leaves four times in two weeks after six weeks from the sowing
Method: Sweet corn was cultivated under the same conditions as those of <15.
The amount of fruits and the amount of biomass of ground parts of the plant thus obtained were measured with respect to each plant and harvest index was calculated.

Arabidopsis [8] = assay: Effect of concentration of oxidized glutathione on growth of Arabidopsis; format: in vivo
Method: Specifically, soil filled in a pod of approximately 65 in width, 65 in depth, and 50 in height was immersed in 0 mM-, 0.01 mM-, 0.2 mM-, 1 mM-, 2 mM-, and 5 mM-GSSG solutions. Seeds of Arabidopsis were sown in such a manner that approximately three seeds existed in each pod, and the seeds were observed chronologically 3 weeks after the sowing.

eustoma = assay: Effect on promoting growth of roots of eustoma; format: in vivo; conditions: MS culture medium containing 1 mM-GSSG or GSH, grown 1 month, transferred to planter
Source text: In the planter, 2 parts of vermiculite, 1 part of The Kureha Ikubyou Baido soil, and 1 part of vermiculite were layered as a lower layer, a middle layer, and an upper layer, respectively, and the above plants were transferred thereto.

[9] = tested on: Arabidopsis GA synthesis mutants ga20ox1; assay: Effect of oxidized glutathione on gibberellin synthesis mutant; format: in vivo; conditions: GSSG (1 mM) from sowing
Source text: In the drawing, “Col” indicates a wild-type Columbia, and “ga20ox1” indicates a mutant in which T-DNA is inserted into a GA20 oxidase gene that codes an enzyme of a GA biosynthesis. “ga20ox1-1” and “ga20ox1-2” are independent mutants in which T-DNA are inserted into different portions.

Sweet corn [10] = assay: Effect of oxidized glutathione on productivity of corn under nitrogen-deficient condition; format: in vivo; conditions: nitrogen-deficient then 30 kgN/10a; 0.2, 0.5, 1.0 mM GSSG, 50 mL two times a week from 8 weeks after sowing
Method: Sweet corn was sown and cultivated for […] (7 weeks) after the sowing without supplying a nitrogen source to the sweet corn. Thereafter, the sweet corn was cultivated with 30 kgN/10a of a nitrogen source. […] See the cultivation conditions in (c) of FIG. 33.
In order to examine the amount of production of the plants in more detail, the amounts of biomass of fruits, ground parts, and portions other than the fruits were measured, and harvest index was calculated.

[11] = tested on: strawberry (breed; Eminent garden series, Yokubari-ichigo kurenai (SUMIKA)); assay: Effect of oxidized glutathione on growth of strawberry (number of runners); format: in vivo; conditions: 50 mL of 0.5 mM-GSSG two times a week; four months after the fertilization; Cont zone two or three runners
[12] = 0.2 mM-GSSG, eleven weeks after two weeks had elapsed from the sowing
[13] = soil immersed in 0-5 mM GSSG solutions

oxidized glutathione [GSSG]
amount of growth vs normal nitrogen management zone (Tsai-hsin): significant increase in the amount of growth | germination and growth of new buds vs not treated [1]: significantly earlier germination and significant promotion of growth of new buds | number of ears relative to plant cultivated with only water (rice (Akita 63)): approximately 1.4 times | amount of biomass of fruits per plant vs not treated (Sweet corn [2]): higher amount of biomass of fruits | amount of biomass of ground parts vs not treated (Sweet corn [2]): substantially the same or lower amount of biomass of ground parts | amount of biomass of the portions other than fruits vs not treated (Sweet corn [2]): lower amount of biomass of the portions other than fruits | amounts of biomass of the portions other than fruits and ground parts vs not treated (Sweet corn [2]): greatly lower amounts of biomass of the portions other than fruits and ground parts | harvest index vs not treated (Sweet corn [2]): higher harvest index | whole amount of biomass per area vs not treated (Sweet corn [2]): did not exhibit a significant difference | seed weight per one pod vs not treated (Arabidopsis [3]): significantly increased the seed weight | growth of new floral buds vs not treated [4]: significant promotion of growth of new floral buds | amount of fruits and amount of biomass of ground parts per plant vs not treated [5, 12]: a larger amount of fruits and a larger amount of biomass of ground parts | harvest index vs not treated [5, 12]: great increase in harvest index | amount of fruits and amount of biomass of ground parts per plant vs not treated ([5]; 0.2 mM-GSSG, two weeks after four weeks had elapsed from the sowing): a larger amount of fruits and a larger amount of biomass of ground parts | amount of fruits and amount of biomass of ground parts per plant vs not treated ([5]; 0.2 mM-GSSG, two weeks after six weeks had elapsed from the sowing): a smaller amount of fruits and a smaller amount of biomass of ground parts | harvest index vs not treated ([5]; 50 mL of 0.2 mM-GSSG, two weeks after four weeks had elapsed from the sowing): great increase in harvest index | harvest index vs not treated ([5]; 50 mL of 0.2 mM-GSSG, two weeks after six weeks had elapsed from the sowing): larger harvest index | ability to increase harvest index and crop yields, oxidized vs reduced glutathione [6]: higher ability to increase the harvest index and to significantly increase crop yields than reduced glutathione | amount of fruits, amount of biomass of ground parts and harvest index of each plant (Sweet corn [7]): increased the amount of fruits, the amount of biomass of ground parts, and the harvest index | difference from Arabidopsis cultivated with water (0 mM) (Arabidopsis [8]; 0.01 mM GSSG): almost no difference | concentration at which making a leaf rounder and lengthening the life of a plant were clearly observed (Arabidopsis [8]; [13]): 0.2 to 2 mM | concentration at which making a stem thicker was observed (Arabidopsis [8]; [13]): 1 to 2 mM | growth of roots vs plants not treated with GSSG (eustoma): significant growth of roots | seed weight [9]: significantly increased | number of flowers (sheaths) ([9]; 8 weeks after the sowing): also increased | number of lateral shoots vs water ([9]; 8 weeks after the sowing): significantly increased | amount of fruits vs not treated (Sweet corn [10]): larger amount of fruits | amounts of biomass of fruits, ground parts, portions other than the fruits, and harvest index vs not treated (Sweet corn [10]): larger amounts of biomass of fruits, ground parts, and portions other than the fruits and harvest index | number of runners per one stock [11]: several ten runners per one stock
